Assay results: PMC5991599, “Anti‐tumor efficacy of a novel CLK inhibitor via targeting RNA splicing and MYC‐dependent vulnerability” (EMBO Molecular Medicine, 2018)

How the values were obtained:
SUM-159 xenografts = experiment: In vivo anti-tumor efficacy study in SUM-159 xenografts; conditions: authors' response in review process file
Text: EMBO Molecular Medicine - Peer Review Process File altering the spliciosome in non transformed cells (i.e. human mammary epithelial cells or MCF10A immortalized but not transform cells)
Although alternative splicing of BCLAF1 is reported to have an additional function in colorectal cancer (Zhou et al, 2014), the reported AS variant was different from the AS variant (lacking exon […]
AS in both cancer cell lines (HCT116) and untransformed cell lines (hTERT) (Funnell et al, 2017). […]
specific to transformed cells.
BJ) had relatively low expression of CLK2 and less growth-suppressive sensitivity to T-025 (Fig […]
rendered cancer cells more sensitive to T-025. […]
short-term treatment with T-025 causes apoptosis only in cancer cells with high expression of CLK2 or with activated MYC, but not in normal tissue. Therefore, in the mouse model, intermittent […]
- Figure 4 D, E, and F: it is not specified the name of all cancer dell lines used in the study. This is […]
relevant the work. If only SKBR3 and AU565 cell lines have a high MYC CVN, and consequently are more sensitive to T-025, why did the authors use MDA-MB 468 cell line to do the experiments of Figure 2 and 3? Please clarify. In addition, confirmation in an alternative breast cancer cell line is […]

[1] = test system: MV-4-11 AML cell line xenografts; experiment: Efficacy study in MV-4-11 xenograft model; format: in vivo, Balb/c nude mice; conditions: 37.5 and 50 mg/kg
Method: (§1) MDA‐MB‐468 (5 × 10^6), NCI‐H1048 (5 × 10^6), or MV‐4‐11 (2 × 10^6) cells in Matrigel were subcutaneously inoculated into the left flanks of Balb/c nude mice (7‐ to 8‐week‐old females). When xenografted tumors grew to a sufficient volume, the tumor diameter was measured and its volume was calculated as follows:
(§2) Tumor volume=long diameter×short diameter×short diameter×(1/2)
(§3) Mice having a tumor of size approximately 200 mm^3 were used in efficacy or in vivo pharmacodynamics studies. T‐025 was dissolved in 0.5% methylcellulose solution. For the efficacy study, after randomized grouping, mice were treated with T‐025 twice daily once or twice weekly for 2 or 3 weeks. The mouse tumor volume and body weight were measured every 2–3 days.

HIPK2 = HIPK2 (Homo sapiens, UniProt Q9H2X6); experiment: KINOMEScan-based kinase selectivity assay; format: binding; parameters: purchased DiscoverX Corporation (Fremont, CA, USA)
Method: (§4) The KINOMEScan‐based kinase selectivity assay was performed at the DiscoverX Corporation (Fremont, CA, USA). The panel of growth inhibition assay and subsequent bioinformatics analysis (Fig EV1) were performed at Eurofins Inc. (St. […] Details of the procedures of cell proliferation assay, caspase‐3/7 activity assay, immunoblotting, and immunohistochemistry are described in Appendix Supplementary Methods.

DYRK1B = DYRK1B (Homo sapiens, UniProt Q9Y463); experiment: KINOMEScan-based kinase selectivity assay; format: binding; parameters: purchased DiscoverX Corporation (Fremont, CA, USA)
Method: as §4

NCI-H1048 xenografts = experiment: Efficacy study in NCI-H1048 xenograft model; format: in vivo, Balb/c nude mice; conditions: 50 mg/kg, twice weekly regimen
Method: as §1, §2, §3

[2] = test system: MYC-driven breast tumor allograft; experiment: Efficacy study in MMTV-MYC allograft model; format: in vivo, Balb/c nude mice; conditions: 50 mg/kg, twice daily on 2 days per week
Method: The transgenic MMTV‐MYC model was generated using the MMTV promoter as previously described (Muller et al, 1988) and was obtained from the Mouse Models of Human Cancer Consortium. The MYC‐driven breast tumor allograft model was established from a primary tumor of this model (females). Tumor cells were isolated using a cell strainer in the presence of RPMI. Viable cell count was determined, and 0.1 × 10^6 cells per mouse were subcutaneously injected in Balb/c nude animals (12‐week‐old females, Taconic Biosciences, Hudson, NY, USA) for subsequent propagation in the presence of Matrigel (BD, Franklin Lakes, NJ, USA) After two rounds of in vivo propagation, the tumor material was cryopreserved in liquid nitrogen. A small piece of the tumor was subcutaneously inoculated into Balb/c nude mice (7‐ to 8‐week‐old females), and the tumors were used for efficacy assessment.
as §2, §3

FLT3 D835Y = target: T1, FLT3 D835Y (Homo sapiens, UniProt P36888, D835Y); experiment: KINOMEScan-based kinase selectivity assay; format: binding; conditions: 300 nmol/L, n = 2
T1 construct: purchased DiscoverX Corporation (Fremont, CA, USA)
Method: (§5) The KINOMEScan‐based kinase selectivity assay was performed at the DiscoverX Corporation (Fremont, CA, USA). The panel of growth inhibition assay and subsequent bioinformatics analysis (Fig EV1) were performed at Eurofins Inc. (St. Charles, MO, USA), using OncoPanel 240 or 60. Details of the procedures of cell proliferation assay, caspase‐3/7 activity assay, immunoblotting, and immunohistochemistry are described in Appendix Supplementary Methods.

HIPK4 = target: T2, HIPK4 (Homo sapiens, UniProt Q8NE63); experiment: KINOMEScan-based kinase selectivity assay; format: binding; conditions: 300 nmol/L, n = 2
T2 construct: purchased DiscoverX Corporation (Fremont, CA, USA)
Method: as §5

HIPK3 = target: T3, HIPK3 (Homo sapiens, UniProt Q9H422); experiment: KINOMEScan-based kinase selectivity assay; format: binding; conditions: 300 nmol/L, n = 2
T3 construct: purchased DiscoverX Corporation (Fremont, CA, USA)
Method: as §5

MDA-MB-468 xenograft = experiment: Efficacy study in MDA-MB-468 xenograft model; format: in vivo, Balb/c nude mice; conditions: 50 mg/kg oral, twice daily on 2 days per week
Method: When xenografted tumors grew to a sufficient volume, the tumor diameter was measured and its volume was calculated as follows:
as §2, §3

[3] = test system: xenografts derived from AML patient (PDX); experiment: Efficacy study in patient-derived xenograft model of acute myeloid leukemia; format: in vivo, NOG mice; conditions: 25 and 50 mg/kg, twice daily at twice weekly
Text: To establish the patient‐derived xenograft model, a small piece of tumor purchased from Dr. Naoe at Nagoya University was subcutaneously inoculated into NOG mice (7‐ to 8‐week‐old females, CIEA Japan, Inc., Kanagawa, Japan). After three rounds of in vivo propagation, tumors were used for efficacy assessment.
as §2, §3

DYRK1B, sequence (Q9Y463 whole entry): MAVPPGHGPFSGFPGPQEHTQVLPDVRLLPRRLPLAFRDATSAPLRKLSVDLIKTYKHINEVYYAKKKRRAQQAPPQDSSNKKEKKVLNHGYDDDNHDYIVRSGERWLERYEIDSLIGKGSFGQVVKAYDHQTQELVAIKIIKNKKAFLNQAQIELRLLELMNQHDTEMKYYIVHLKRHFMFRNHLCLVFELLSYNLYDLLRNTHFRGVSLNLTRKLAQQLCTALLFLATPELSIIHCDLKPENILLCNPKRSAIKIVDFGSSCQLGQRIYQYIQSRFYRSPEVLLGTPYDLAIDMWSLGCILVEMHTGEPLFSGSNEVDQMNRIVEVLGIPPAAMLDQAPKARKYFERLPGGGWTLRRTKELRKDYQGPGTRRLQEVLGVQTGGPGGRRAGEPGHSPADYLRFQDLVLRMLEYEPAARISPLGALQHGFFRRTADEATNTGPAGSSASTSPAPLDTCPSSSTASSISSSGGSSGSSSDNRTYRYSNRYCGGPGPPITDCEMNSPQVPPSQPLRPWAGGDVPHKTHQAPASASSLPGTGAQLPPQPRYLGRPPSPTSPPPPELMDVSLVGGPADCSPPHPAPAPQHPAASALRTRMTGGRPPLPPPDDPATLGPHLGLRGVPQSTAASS
HIPK2, sequence (Q9H2X6 whole entry): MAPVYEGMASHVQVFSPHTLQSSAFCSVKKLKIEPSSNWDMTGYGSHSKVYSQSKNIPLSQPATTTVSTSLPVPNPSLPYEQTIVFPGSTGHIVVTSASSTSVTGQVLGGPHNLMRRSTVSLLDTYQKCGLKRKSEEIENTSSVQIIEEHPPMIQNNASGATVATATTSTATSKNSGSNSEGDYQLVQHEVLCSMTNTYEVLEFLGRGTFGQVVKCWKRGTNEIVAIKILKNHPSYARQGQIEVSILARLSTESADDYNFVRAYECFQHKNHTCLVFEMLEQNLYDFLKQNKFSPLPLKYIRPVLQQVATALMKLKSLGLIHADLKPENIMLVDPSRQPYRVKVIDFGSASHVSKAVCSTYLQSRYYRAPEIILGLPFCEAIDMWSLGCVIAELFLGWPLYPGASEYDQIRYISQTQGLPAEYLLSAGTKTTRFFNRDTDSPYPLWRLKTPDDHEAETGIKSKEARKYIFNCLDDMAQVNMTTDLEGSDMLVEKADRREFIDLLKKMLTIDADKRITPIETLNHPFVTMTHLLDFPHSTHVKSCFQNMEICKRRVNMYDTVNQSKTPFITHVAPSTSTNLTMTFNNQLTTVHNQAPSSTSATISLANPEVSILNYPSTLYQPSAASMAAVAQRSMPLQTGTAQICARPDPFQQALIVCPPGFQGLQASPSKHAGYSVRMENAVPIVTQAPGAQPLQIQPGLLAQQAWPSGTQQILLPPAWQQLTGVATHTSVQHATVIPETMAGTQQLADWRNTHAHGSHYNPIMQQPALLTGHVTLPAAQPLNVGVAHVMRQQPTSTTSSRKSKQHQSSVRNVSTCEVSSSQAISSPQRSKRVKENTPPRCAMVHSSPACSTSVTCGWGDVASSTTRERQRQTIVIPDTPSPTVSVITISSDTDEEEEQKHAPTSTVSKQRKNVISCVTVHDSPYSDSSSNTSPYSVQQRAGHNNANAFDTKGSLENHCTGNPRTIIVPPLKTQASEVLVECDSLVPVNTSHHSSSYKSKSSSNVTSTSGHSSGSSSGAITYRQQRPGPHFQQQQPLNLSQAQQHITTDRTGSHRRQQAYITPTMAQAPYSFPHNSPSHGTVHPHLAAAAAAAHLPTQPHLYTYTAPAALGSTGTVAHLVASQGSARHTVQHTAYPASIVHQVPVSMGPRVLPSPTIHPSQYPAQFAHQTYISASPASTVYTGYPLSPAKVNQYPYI
T3 sequence (Q9H422 whole entry): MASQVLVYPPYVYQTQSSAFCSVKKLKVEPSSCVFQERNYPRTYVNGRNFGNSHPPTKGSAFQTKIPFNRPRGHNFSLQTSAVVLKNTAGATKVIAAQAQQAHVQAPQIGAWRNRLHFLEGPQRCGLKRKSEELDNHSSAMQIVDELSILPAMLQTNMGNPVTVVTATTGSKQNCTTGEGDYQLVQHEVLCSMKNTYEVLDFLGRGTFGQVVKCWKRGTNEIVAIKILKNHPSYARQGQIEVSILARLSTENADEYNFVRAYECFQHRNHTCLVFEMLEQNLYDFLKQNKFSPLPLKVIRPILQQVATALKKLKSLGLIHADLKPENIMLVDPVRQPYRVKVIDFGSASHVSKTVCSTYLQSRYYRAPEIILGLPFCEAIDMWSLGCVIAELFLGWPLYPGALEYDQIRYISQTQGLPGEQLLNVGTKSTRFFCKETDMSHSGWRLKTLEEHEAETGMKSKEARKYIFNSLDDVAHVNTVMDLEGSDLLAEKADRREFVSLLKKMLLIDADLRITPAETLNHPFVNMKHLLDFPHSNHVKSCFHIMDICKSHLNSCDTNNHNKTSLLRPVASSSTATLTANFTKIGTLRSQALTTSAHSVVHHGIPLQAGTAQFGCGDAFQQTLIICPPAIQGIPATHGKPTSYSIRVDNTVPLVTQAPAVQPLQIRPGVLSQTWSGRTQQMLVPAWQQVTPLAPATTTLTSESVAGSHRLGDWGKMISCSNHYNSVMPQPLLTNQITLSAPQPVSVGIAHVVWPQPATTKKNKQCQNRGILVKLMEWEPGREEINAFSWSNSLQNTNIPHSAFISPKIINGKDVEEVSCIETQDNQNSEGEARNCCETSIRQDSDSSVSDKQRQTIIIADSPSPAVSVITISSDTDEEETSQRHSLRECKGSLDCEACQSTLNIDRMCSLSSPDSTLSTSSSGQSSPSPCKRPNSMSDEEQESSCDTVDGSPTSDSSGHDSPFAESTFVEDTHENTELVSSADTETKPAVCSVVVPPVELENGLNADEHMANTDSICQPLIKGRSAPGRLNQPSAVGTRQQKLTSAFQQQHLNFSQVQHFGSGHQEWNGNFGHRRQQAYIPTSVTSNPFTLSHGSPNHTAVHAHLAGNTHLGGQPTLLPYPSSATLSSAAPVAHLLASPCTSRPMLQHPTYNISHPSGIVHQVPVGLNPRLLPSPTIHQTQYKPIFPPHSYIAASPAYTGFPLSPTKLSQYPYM
T2 sequence (Q8NE63 whole entry): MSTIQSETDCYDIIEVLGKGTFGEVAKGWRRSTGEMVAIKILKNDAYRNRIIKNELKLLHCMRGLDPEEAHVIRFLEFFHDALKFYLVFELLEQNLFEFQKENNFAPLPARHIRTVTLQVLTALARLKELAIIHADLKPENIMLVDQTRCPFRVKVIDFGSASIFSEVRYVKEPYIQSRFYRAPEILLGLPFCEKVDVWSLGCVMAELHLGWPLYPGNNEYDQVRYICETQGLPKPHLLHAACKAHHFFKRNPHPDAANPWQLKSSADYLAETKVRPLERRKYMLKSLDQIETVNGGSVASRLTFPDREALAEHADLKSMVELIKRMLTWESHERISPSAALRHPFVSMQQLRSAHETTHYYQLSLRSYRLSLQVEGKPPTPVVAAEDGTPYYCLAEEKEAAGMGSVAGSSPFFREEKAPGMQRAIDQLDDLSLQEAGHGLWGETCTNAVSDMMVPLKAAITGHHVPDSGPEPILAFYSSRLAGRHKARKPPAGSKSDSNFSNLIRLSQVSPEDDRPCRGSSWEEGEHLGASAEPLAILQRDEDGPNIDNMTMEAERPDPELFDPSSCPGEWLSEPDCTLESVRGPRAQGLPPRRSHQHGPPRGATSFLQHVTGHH

With CNc1nc(NCc2ncccn2)c2c(-c3ccc4ncccc4c3)c[nH]c2n1 [T-025, N ^2‐methyl‐N ^4‐[pyrimidin‐2‐ylmethyl]‐5‐[quinolin‐6‐yl]‐7H‐pyrrolo[2,3‐d]pyrimidine‐2,4‐diamine] the anti-tumor efficacy (SUM-159 xenografts) was “showed significant anti-tumor properties”, the “anti-tumor efficacy, tumor volume” value [1] was “profound anti‐tumor efficacies” and the Kd (HIPK2) was 96 nM. For the same compound, the inhibition at 0.3 µM (HIPK2; 300 nmol/L, n = 2) was 96%, the Kd (DYRK1B) was 1.5 nM and the inhibition at 0.3 µM (DYRK1B; 300 nmol/L, n = 2) was 99.6%. For the same compound, the “anti-tumor efficacy, tumor volume” value (NCI-H1048 xenografts) was “exhibited in vivo anti‐tumor efficacy”, the body weight loss (NCI-H1048 xenografts) was “no significant body weight loss” and the “anti-tumor efficacy, tumor growth” value [2] was “strongly suppressed growth of the allograft tumors”. The body weight loss [2] was “without inducing body weight losses”, the inhibition at 0.3 µM (FLT3 D835Y) was 93.3% and the inhibition at 0.3 µM (HIPK4) was 95.6%. The inhibition at 0.3 µM (HIPK3) was 95.1%, the “nadir body weight loss” value (MDA-MB-468 xenograft; 3 weeks, near the maximum tolerated dose) was < 10% and the “anti-tumor effect, tumor volume” value (MDA-MB-468 xenograft; end of 3-week treatment cycle) was “tumor volumes had shrunk relative to the initial volumes”. For the same compound, the “anti-tumor efficacy, tumor volume” value [3] was “profound anti‐tumor efficacies”.
